Reference: US20240148744A1 (Celgene Corporation, priority 2021, published 2024)
Where two headings read alike, the source gives them in different places.

Legend:
[1] = tested on: Onchocerca gutturosa adult male worms; assay: Onchocerca gutturosa in vitro screening model: adult worm motility score and MTT/formazan viability; format: cell-based
Dirofilaria immitis = assay: Heartworm screen Dirofilaria immitis (stage DiMF/DiL4 not specified in the tables); format: cell-based; conditions: read-out: D. immitis Activity class
[2] = read-out: O. gutt Activity class

SMILES	IC50 [1, 2] [nM]	IC50 (Dirofilaria immitis) [nM]	IC50 ([1]; read-out: O. gutt Activity class, in vitro motility) [nM]
Cc1ccc(S(=O)(=O)Nc2cccc3cccnc23)cn1 [Compound 157, 6-methyl-N-(quinolin-8-yl)pyridine-3-sulfonamide]	500 to 5000	500 to 5000	
O=S(=O)(Nc1cccc2cccnc12)c1ccnc(C(F)(F)F)c1 [Compound 158, N-(quinolin-8-yl)-2-(trifluoromethyl) pyridine-4-sulfonamide]	200 to 500	500 to 5000	
CC(C)(C)c1ccc(S(=O)(=O)Nc2cccc3cccnc23)cn1 [Compound 159, 6-tert-butyl-N-(quinolin-8-yl)pyridine-3-sulfonamide]	< 200	200 to 500	
O=S(=O)(Nc1cccc2cccnc12)c1cc(F)ccn1 [Compound 160, 4-fluoro-N-(quinolin-8-yl)pyridine-2-sulfonamide]	< 200	500 to 5000	
Cc1cc(C#N)cc(S(=O)(=O)Nc2cccc3cccnc23)n1 [Compound 167, 4-cyano-6-methyl-N-(quinolin-8-yl)pyridine-2-sulfonamide]	200 to 500	500 to 5000	
O=S(=O)(Nc1cccc2cccnc12)c1nccn1C1(C(F)(F)F)CC1 [Compound 168, N-(quinolin-8-yl)-1-(1-(trifluoromethyl)cyclopropyl)-1H-imidazole-2-sulfonamide]	< 200	200 to 500	
N#Cc1nc(Cl)ccc1S(=O)(=O)Nc1cccc2cccnc12 [Compound 169, 6-chloro-2-cyano-N-(quinolin-8-yl)pyridine-3-sulfonamide]	500 to 5000	500 to 5000	
O=S(=O)(Nc1cccc2cccnc12)c1nccn1C1CC1C(F)(F)F (stereo not shown) [Compound 171, N-(quinolin-8-yl)-1-(2-(trifluoromethyl)cyclopropyl)-1H-imidazole-2-sulfonamide]	< 200	200 to 500	
O=S(=O)(Nc1cccc2cccnc12)c1nccn1C1CC1(F)F (stereo not shown) [Compound 174, 1-(2,2-difluorocyclo-propyl)-N-(quinolin-8-yl)-1H-imidazole-2-sulfonamide]	< 200	200 to 500	
O=S(=O)(Nc1cccc2cccnc12)c1ccc(Cl)nc1C(F)(F)F [Compound 176, 6-chloro-N-(quinolin-8-yl)-2-(trifluoromethyl) pyridine-3-sulfonamide]	200 to 500	500 to 5000	
Cc1cc(C)c(S(=O)(=O)Nc2cccc3cccnc23)c(Cl)n1 [Compound 177, 2-chloro-4,6-dimethyl-N-(quinolin-8-yl)pyridine-3-sulfonamide]	500 to 5000	500 to 5000	
N#Cc1ccc(-c2cccc(S(=O)(=O)Nc3cccc4cccnc34)n2)cc1 [Compound 178, 6-(4-cyanophenyl)-N-(quinolin-8-yl)pyridine-2-sulfonamide]	< 200	500 to 5000	
Cc1nc(Cl)ccc1S(=O)(=O)Nc1cccc2cccnc12 [Compound 179, 6-chloro-2-methyl-N-(quinolin-8-yl)pyridine-3-sulfonamide]	< 200	500 to 5000	
Cc1ncc(S(=O)(=O)Nc2cccc3cccnc23)cc1Cl [Compound 180, 5-chloro-6-methyl-N-(quinolin-8-yl)pyridine-3-sulfonamide]	500 to 5000	500 to 5000	
Cc1ncc(Cl)cc1S(=O)(=O)Nc1cccc2cccnc12 [Compound 181, 5-chloro-2-methyl-N-(quinolin-8-yl)pyridine-3-sulfonamide]	500 to 5000	200 to 500	
O=S(=O)(Nc1cccc2cccnc12)c1ccc(-c2ccc(F)cc2)nc1 [Compound 182, 6-(4-fluorophenyl)-N-(quinolin-8-yl)pyridine-3-sulfonamide]	< 200	500 to 5000	
Cc1nc(S(=O)(=O)Nc2cccc3cccnc23)ccc1Cl [Compound 184, 5-chloro-6-methyl-N-(quinolin-8-yl)pyridine-2-sulfonamide]	< 200	200 to 500	
C[C@@H](C1CC1)n1ccnc1S(=O)(=O)Nc1cccc2cccnc12 [Compound 185, (S)-1-(1-cyclopropyl-ethyl)-N-(quinolin-8-yl)-1H-imidazole-2-sulfonamide]	< 200	200 to 500	
Cc1cc(S(=O)(=O)Nc2cccc3cccnc23)cc(C)n1 [Compound 186, 2,6-dimethyl-N-(quinolin-8-yl)pyridine-4-sulfonamide]	200 to 500	500 to 5000	
Cc1ccc(S(=O)(=O)Nc2cccc3cccnc23)c(C)n1 [Compound 187, 2,6-dimethyl-N-(quinolin-8-yl)pyridine-3-sulfonamide]	500 to 5000	500 to 5000	
Cc1ccc(S(=O)(=O)Nc2cccc3cccnc23)c(Cl)n1 [Compound 188, 2-chloro-6-methyl-N-(quinolin-8-yl)pyridine-3-sulfonamide]	< 200	500 to 5000	
O=S(=O)(Nc1cccc2cccnc12)c1ccc(-c2ccccc2)nc1 [Compound 189, 6-phenyl-N-(quinolin-8-yl)pyridine-3-sulfonamide]	200 to 500	500 to 5000	
O=S(=O)(Nc1cccc2cccnc12)c1ccc(C(F)(F)F)nc1 [Compound 190, N-(quinolin-8-yl)-6-(trifluoromethyl) pyridine-3-sulfonamide]	< 200	< 200	
CCn1cc(C)nc1S(=O)(=O)Nc1cccc2cccnc12 [Compound 191, 1-ethyl-4-methyl-N-(quinolin-8-yl)-1H-imidazole-2-sulfonamide]	< 200	200 to 500	

SMILES	IC50 [1, 2] [nM]	IC50 (Dirofilaria immitis) [nM]	IC50 ([1]; read-out: O. gutt Activity class, in vitro motility) [nM]
CCn1ccc(S(=O)(=O)Nc2cccc3cccnc23)n1 [Compound 193, 1-ethyl-N-(quinolin-8-yl)-1H-pyrazole-3-sulfonamide]	200 to 500	500 to 5000	
Cc1ccc(S(=O)(=O)Nc2cccc3nccnc23)nc1 [Compound 196, 5-methyl-N-(quinoxalin-5-yl)pyridine-2-sulfonamide]	200 to 500	200 to 500	
COc1nccc(S(=O)(=O)Nc2cccc3cccnc23)n1 [Compound 197, 2-methoxy-N-(quinolin-8-yl)pyrimidine-4-sulfonamide]	200 to 500	500 to 5000	
CC(C)n1nccc1S(=O)(=O)Nc1cccc2cccnc12 [Compound 206, 1-isopropyl-N-(quinolin-8-yl)-1H-pyrazole-5-sulfonamide]	200 to 500	500 to 5000	
CN(C)C(=O)c1cccnc1S(=O)(=O)Nc1cccc2cccnc12 [Compound 207, N,N-dimethyl-2-(N-quinolin-8-ylsulfamoyl) nicotinamide]	500 to 5000	500 to 5000	
CN(C)c1cccnc1S(=O)(=O)Nc1cccc2cccnc12 [Compound 208, 3-(dimethylamino)-N-(quinolin-8-yl)pyridine-2-sulfonamide]	< 200	500 to 5000	
CC(C)c1cccnc1S(=O)(=O)Nc1cccc2cccnc12 [Compound 211, 3-isopropyl-N-(quinolin-8-yl)pyridine-2-sulfonamide]	< 200	500 to 5000	
Cc1cccnc1S(=O)(=O)Nc1cccc2cccnc12 [Compound 213, 3-methyl-N-(quinolin-8-yl)pyridine-2-sulfonamide]	< 200	500 to 5000	
O=S(=O)(Nc1cccc2cccnc12)c1ncccc1Cl [Compound 215, 3-chloro-N-(quinolin-8-yl)pyridine-2-sulfonamide]	< 200	500 to 5000	
O=S(=O)(Nc1cccc2cccnc12)c1cc(Cl)ccn1 [Compound 220, 4-chloro-N-(quinolin-8-yl)pyridine-2-sulfonamide]	< 200	< 200	
O=S(=O)(Nc1cccc2cccnc12)c1cccc(Cl)n1 [Compound 221, 6-chloro-N-(quinolin-8-yl)pyridine-2-sulfonamide]	< 200	500 to 5000	
COc1ccnc(S(=O)(=O)Nc2cccc3cccnc23)c1 [Compound 222, 4-methoxy-N-(quinolin-8-yl)pyridine-2-sulfonamide]	< 200	200 to 500	
O=S(=O)(Nc1cccc2cccnc12)c1nccc2ccccc12 [Compound 225, N-(quinolin-8-yl)isoquinoline-1-sulfonamide]	< 200	500 to 5000	
Cc1cn(C)c(S(=O)(=O)Nc2cccc3cccnc23)n1 [Compound 231, 1,4-dimethyl-N-(quinolin-8-yl)-1H-imidazole-2-sulfonamide]	500 to 5000	< 200	
CC(C)Oc1ccc(S(=O)(=O)Nc2cccc3cccnc23)nc1 [Compound 242, 5-isopropoxy-N-(quinolin-8-yl)pyridine-2-sulfonamide]	< 200	200 to 500	
CC(C)Oc1ccnc(S(=O)(=O)Nc2cccc3cccnc23)c1 [Compound 245, 4-isopropoxy-N-(quinolin-8-yl)pyridine-2-sulfonamide]	< 200	200 to 500	
Cc1ccc(S(=O)(=O)Nc2cccc3cccnc23)nc1 [Compound 248, 5-methyl-N-(quinolin-8-yl)pyridine-2-sulfonamide]	500 to 5000	200 to 500	
Nc1cccc(S(=O)(=O)Nc2cccc3cccnc23)n1 [Compound 264, 6-amino-N-(quinolin-8-yl)pyridin-2-sulfonamide]	500 to 5000	500 to 5000	
Cc1ccnc(S(=O)(=O)Nc2cccc3cccnc23)c1 [Compound 265, 4-methyl-N-(quinolin-8-yl)pyridine-2-sulfonamide]		200 to 500	< 200
O=S(=O)(Nc1cccc2cccnc12)c1cc2ccccc2cn1 [Compound 270, N-(quinolin-8-yl)isoquinoline-3-sulfonamide]	< 200	200 to 500	
O=S(=O)(Nc1cccc2cccnc12)c1cnccn1 [Compound 271, N-(quinolin-8-yl)pyrazine-2-sulfonamide]	< 200	500 to 5000	
Cc1cccc(S(=O)(=O)Nc2cccc3cccnc23)n1 [Compound 272, 6-methyl-N-(quinolin-8-yl)pyridine-2-sulfonamide]	< 200	500 to 5000	
Cc1ccc(S(=O)(=O)Nc2cccc3cccnc23)o1 [Compound 276, 5-methyl-N-(quinolin-8-yl)furan-2-sulfonamide]	200 to 500	200 to 500	
